According to US11186564B2, “Dual NAV1.2/5HT2a inhibitors for treating CNS disorders” (Sunovion Pharmaceuticals Inc., priority 2016, dated 2021):

Molecular target: T1, recombinant human serotonin receptor 5-HT2A (Homo sapiens, UniProt P28223)
T1 construct: expressed in transfected cells; method B: loaded with Ca2+ dye
Assay: 5-HT2A antagonist Ca2+ assay in CHO-K1 cells (method A aequorin luminescence / method B FLIPR fluorescence)
Type: cell-based
Conditions: antagonist mode vs EC80 of reference agonist, method A or B, read-out: 5HT2A IC50
Text: The methods utilized to assess the inhibitory activity of compounds on recombinant human serotonin receptor 5-HT2A was based upon previously published approaches [Jerman J C, Brough S J, Gager T, Wood M, Coldwell M C, Smart D, Middlemiss D N. Pharmacological characterisation of human 5-HT2 receptor subtypes. European Journal of Pharmacology 2001 Feb. 23; 414(1):23-30; Le Poul E, Hisada S, Mizuguchi Y, Dupriez V J, Burgeon E, Detheux M. Adaptation of aequorin functional assay to high throughput screening. J Biomolecular Screening 2002 February; 7(1):57-65.] The 5-HT2A receptor signals through Gq-phospholipase signaling cascade, which leads to a transient increase in free intracellular […] concentration. Both 5-HT2A assay methods rely upon monitoring these changes in Ca^2+ concentration.
In method A [Le Poul E, Hisada S, Mizuguchi Y, Dupriez V J, Burgeon E, Detheux M. (2002)], CHO-K1 cells engineered to stably co-express both recombinant human 5-HT2A and mitochondrial apoaequorin are used. […] For agonist testing, 50 microliters of cell suspension is mixed with 50 microliters of a solution containing test compound or reference agonist in a 96-well standard geometry microtiter plate. The resulting emission of light was recorded using a Hamamatsu Functional Drug Screening System 6000 (FDSS 6000) luminometer. For antagonist testing, 100 microliters of the solution of reference agonist (to yield an agonist concentration, EC80, sufficient to cause the cells to generate an 80% maximal luminescence response in the absence of any antagonist) is injected into the mix of cells and test compound, 15 minutes after the first injection. The resulting emission of light is recorded using Hamamatsu FDSS 6000 luminometer. IC50 values are calculated (from compound concentration dependent inhibition of agonist-induced 5-HT2A-dependent light emission) by non-linear least squares regression of the data (percent inhibition) onto equation (1) above.
In method B [Jerman J C, Brough S J, Gager T, Wood M, Coldwell M C, Smart D, Middlemiss D N. (2001)], CHO-K1 cells which had been engineered to stably co-express recombinant human 5-HT2A are used in assay done similarly to method A. In method B, the cells are loaded with a fluorogenic Ca^2+ indicator dye by pre-incubation. Addition of the reference agonist serotonin causes a transient increase in fluorescence in a suspension of the loaded cells, which can be detected using the Molecular Devices fluorometric imaging plate reader (FLIPR), a high-throughput platform for 96-well cell-based assays. Addition of test compounds that are 5-HT2A antagonists, prior to the addition of the agonist (to yield an agonist concentration, EC80, sufficient to cause the cells to generate an 80% maximal fluorescence response in the absence of any antagonist), reduces the amount of fluorescence detected by the FLIPR upon agonist addition. IC50 values are calculated (from compound concentration dependent inhibition of agonist-induced 5-HT2A-dependent fluorescence) by non-linear least squares regression of the data (percent inhibition) onto equation (1) above.

T1 sequence (P28223 whole entry): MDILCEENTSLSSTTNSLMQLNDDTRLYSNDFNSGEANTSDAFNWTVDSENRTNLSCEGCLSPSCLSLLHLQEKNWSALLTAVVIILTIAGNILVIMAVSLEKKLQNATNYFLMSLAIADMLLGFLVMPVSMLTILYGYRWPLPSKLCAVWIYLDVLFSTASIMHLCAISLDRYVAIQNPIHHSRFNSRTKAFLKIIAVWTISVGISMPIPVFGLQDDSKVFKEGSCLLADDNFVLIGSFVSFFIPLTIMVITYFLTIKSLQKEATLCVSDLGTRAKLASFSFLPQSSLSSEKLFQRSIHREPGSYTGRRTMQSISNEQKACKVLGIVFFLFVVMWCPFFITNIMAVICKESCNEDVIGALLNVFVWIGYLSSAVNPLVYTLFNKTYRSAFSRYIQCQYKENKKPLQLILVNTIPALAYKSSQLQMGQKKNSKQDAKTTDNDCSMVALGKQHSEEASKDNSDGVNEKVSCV

Row | SMILES | IC50
1 | COc1ccc2c(c1)C(CN1CCC(Oc3cncnc3)CC1)CC2 (centres unmarked) [Example 126, 5-((1-((6-methoxy-2,3-dihydro-1H-inden-1-yl)methyl)piperidin-4-yl)oxy)pyrimidine] | > 3.16 µM
2 | COc1ccccc1CN1CCC2(CCc3ccccc3O2)CC1 [Example 416, l′-(2-methoxybenzyl) spiro[chromane-2,4′-piperidine]] | 1.05 µM
3 | O[C@@H](COC1CCCCC1)CN1CCC[C@@H](Oc2ccc(F)cc2)C1 [Example 267, (R)-1-(cyclohexyloxy)-3-((R)-3-(4-fluorophenoxy)piperidin-1-yl)propan-2-ol] | 10.4 µM
4 | COc1ccccc1O[C@H]1CCN(CCC2CCOc3ccccc32)[C@@H](C)C1 (stereo partly drawn) [Example 181, (2S,4S)-1-(2-(chroman-4-yl)ethyl)-4-(2-methoxyphenoxy)-2-methylpiperidine] | > 10 µM
5 | O=C1c2ccccc2CCN1CCN1CCC(Oc2ccncc2)CC1 [Example 199, 2-(2-(4-(pyridin-4-yloxy)piperidin-1-yl)ethyl)-3,4-dihydroisoquinolin-1(2H)-one] | > 8.7 µM
6 | COC(CCN1CCC(Oc2ccccc2)CC1)c1ccccc1 (centres unmarked) [Example 226, 1-(3-methoxy-3-phenylpropyl)-4-phenoxypiperidine] | 0.02 µM
7 | Cc1cccc(N2CCN(CC3CCOc4ccccc43)CC2)c1C (centres unmarked) [Example 59, 1-(chroman-4-ylmethyl)-4-(2,3-dimethylphenyl)piperazine] | 0.8 µM
8 | O[C@@H](COC1CCCCC1)CN1C[C@@H]2C[C@H](C1)N(c1ccccc1)C2 [Example 332, (R)-1-(cyclohexyloxy)-3-((1S,5R)-6-phenyl-3,6-diazabicyclo[3.2.1]octan-3-yl)propan-2-ol] | > 16.7 µM
9 | O[C@H](COC1CCCCC1)CN1C[C@H]2CC[C@@H](C1)N2c1ccccc1 [Example 300, (S)-1-(cyclohexyloxy)-3-((1R,5S)-8-phenyl-3,8-diazabicyclo[3.2.1]octan-3-yl)propan-2-ol] | > 10 µM
10 | O[C@@H](COC1CCCCC1)CN1[C@@H]2CC[C@H]1CN(c1nccs1)C2 [Example 291, (R)-1-(cyclohexyloxy)-3-((1R,5S)-3-(thiazol-2-yl)-3,8-diazabicyclo[3.2.1]octan-8-yl)propan-2-ol] | > 10 µM
11 | COc1cccc(O[C@H]2CCN(CC(O)CO[C@H]3CCc4ccccc43)C2)c1 (stereo partly drawn) [Example 39, 1-(((S)-2,3-dihydro-1H-inden-1-yl)oxy)-3-((S)-3-(3-methoxyphenoxy)pyrrolidin-1-yl)propan-2-ol] | 4.3 µM
12 | OC(COC1CCCCC1)CN1CCC2(CCCN2c2ccccc2)C1 (centres unmarked) [Example 348, 1-(cyclohexyloxy)-3-(1-phenyl-1,7-diazaspiro[4.4]nonan-7-yl)propan-2-ol] | 7.34 µM
13 | O=C1c2ccccc2CCN1CCN1CCCCC(Oc2ccc(F)cc2)C1 (centres unmarked) [Example 280, 2-(2-(3-(4-fluorophenoxy)azepan-1-yl)ethyl)-3,4-dihydroisoquinolin-1(2H)-one] | 4.89 µM
14 | CC(CN1CCc2ccccc2C1=O)N1CC[C@@H](Oc2ccc(F)cc2)C1 (stereo partly drawn) [Example 33, 2-(2-((R)-3-(4-fluorophenoxy)pyrrolidin-1-yl)propyl)-3,4-dihydroisoquinolin-1(2H)-one] | > 10 µM
15 | Fc1ccc(O[C@@H]2CCCN(CC3COCc4ccccc43)C2)cc1 (stereo partly drawn) [Example 260, (3R)-3-(4-fluorophenoxy)-1-(isochroman-4-ylmethyl)piperidine] | 1.81 µM
16 | Fc1ccc(OC2COCCN(CC3COc4ccccc43)C2)cc1 (centres unmarked) [Example 278, 4-((2,3-dihydrobenzofuran-3-yl)methyl)-6-(4-fluorophenoxy)-1,4-oxazepane] | > 3.16 µM
17 | OC(COc1ccccc1)CN1C[C@@H]2C[C@H]1CN2c1ccccc1 (stereo partly drawn) [Example 307, 1-phenoxy-3-((1S,4S)-5-phenyl-2,5-diazabicyclo[2.2.1]heptan-2-yl)propan-2-ol] | 10.4 µM
18 | C[C@H]1C[C@]2(CCc3ccccc3O2)CCN1CCO[C@H]1CCc2ccccc21 [Example 433, (2S,2′S)-1′-(2-(((S)-2,3-dihydro-1H-inden-1-yl)oxy)ethyl)-2′-methylspiro[chromane-2,4′-piperidine]] | 0.32 µM

Row | SMILES | IC50
19 | COc1ccc2c(c1)C(CN1CCC(Oc3cccc(C(N)=O)c3)CC1)CC2 (centres unmarked) [Example 108, 3-((1-((6-methoxy-2,3-dihydro-1H-inden-1-yl)methyl)piperidin-4-yl)oxy)benzamide] | 0.74 µM
20 | COc1ccccc1O[C@@H]1CCN(CCN2CCc3ccccc3C2=O)[C@H]1C [Example 17, 2-(2-((2S,3R)-3-(2-methoxyphenoxy)-2-methylpyrrolidin-1-yl)ethyl)-3,4-dihydroisoquinolin-1(2H)-one] | 0.4 µM
21 | OC(COc1ccccc1)CN1C[C@H]2CC[C@@H](C1)N2c1ccccc1 (stereo partly drawn) [Example 302, 1-phenoxy-3-((1R,5S)-8-phenyl-3,8-diazabicyclo[3.2.1]octan-3-yl)propan-2-ol] | > 2.7 µM
22 | COc1ccccc1O[C@H]1CCN(CC2Cc3ccccc3C2)[C@@H](C)C1 [Example 143, (2S,4S)-1-((2,3-dihydro-1H-inden-2-yl)methyl)-4-(2-methoxyphenoxy)-2-methylpiperidine] | 0.08 µM
23 | O=C1c2ccccc2CCN1CCN1CC[C@H](Oc2cccnc2)C1 [Example 24, (S)-2-(2-(3-(pyridin-3-yloxy)pyrrolidin-1-yl)ethyl)-3,4-dihydroisoquinolin-1(2H)-one] | > 16.7 µM
24 | c1ccc2c(c1)CC1(CCN(CC3Cc4ccncc4C3)CC1)O2 (centres unmarked) [Example 398, 1′-((6,7-dihydro-5H-cyclopenta[c]pyridin-6-yl)methyl)-3H-spiro[benzofuran-2,4′-piperidine]] | 9.65 µM
25 | Fc1ccc(O[C@H]2CCN(CC3CCc4cnccc43)C2)cc1 (stereo partly drawn) [Example 2, 5-(((S)-3-(4-fluorophenoxy)pyrrolidin-1-yl)methyl)-6,7-dihydro-5H-cyclopenta[c]pyridine] | 1.25 µM
26 | O=C1c2ccccc2CCN1CCN1CCC[C@H](Oc2ccc(F)cc2)C1 [Example 265, (S)-2-(2-(3-(4-fluorophenoxy)piperidin-1-yl)ethyl)-3,4-dihydroisoquinolin-1(2H)-one] | > 13.1 µM
27 | CC1Cc2ccccc2C(=O)N1CCN1CCC(Oc2cccc(Cl)c2)CC1 (centres unmarked) [Example 198, 2-(2-(4-(3-chlorophenoxy)piperidin-1-yl)ethyl)-3-methyl-3,4-dihydroisoquinolin-1(2H)-one] | 0.41 µM
28 | COc1ccccc1OC1CCN(CC2(C)Cc3cccnc3C2)CC1 (centres unmarked) [Example 151, 6-((4-(2-methoxyphenoxy)piperidin-1-yl)methyl)-6-methyl-6,7-dihydro-5H-cyclopenta[b]pyridine] | > 10 µM
29 | c1ccc2c(c1)CC1(CCN(CC3Cc4cccnc4C3)CC1)O2 (centres unmarked) [Example 397, 1′-((6,7-dihydro-5H-cyclopenta[b]pyridin-6-yl)methyl)-3H-spiro[benzofuran-2,4′-piperidine]] | 2.76 µM
30 | COCc1cccc(OC2CCN(CC3CCc4ccc(OC)cc43)CC2)c1 (centres unmarked) [Example 111, 1-((6-methoxy-2,3-dihydro-1H-inden-1-yl)methyl)-4-(3-(methoxymethyl)phenoxy)piperidine] | 0.21 µM
31 | OC(CO[C@@H]1CCCc2ccccc21)CN1CC[C@H](Oc2ccc(F)cc2)C1 (stereo partly drawn) [Example 51, 1-((S)-3-(4-fluorophenoxy)pyrrolidin-1-yl)-3-(((R)-1,2,3,4-tetrahydronaphthalen-1-yl)oxy)propan-2-ol] | 0.49 µM
32 | O[C@H](COC1CCCCC1)CN1C[C@@H]2C[C@H](C1)N(c1ccccc1)C2 [Example 333, (S)-1-(cyclohexyloxy)-3-((1S,5R)-6-phenyl-3,6-diazabicyclo[3.2.1]octan-3-yl)propan-2-ol] | > 16.7 µM
33 | COc1ccccc1O[C@H]1CCN(CCN2CCc3ccccc3C2=O)[C@@H]1C [Example 18, 2-(2-((2R,3S)-3-(2-methoxyphenoxy)-2-methylpyrrolidin-1-yl)ethyl)-3,4-dihydroisoquinolin-1(2H)-one] | 0.02 µM
34 | O=C1c2ccccc2CCN1CCN1CC[C@@H](Oc2cccnc2)C1 [Example 23, (R)-2-(2-(3-(pyridin-3-yloxy)pyrrolidin-1-yl)ethyl)-3,4-dihydroisoquinolin-1(2H)-one] | > 16.7 µM
35 | O[C@H](COC1CCCCC1)CN1CCC(Oc2ccccc2)CC1 [Example 233, (S)-1-(cyclohexyloxy)-3-(4-phenoxypiperidin-1-yl)propan-2-ol] | 0.05 µM
